Measurements published in patent US11779551B1 (priority 2022, dated 2023).

How the values were obtained:
human lymphoblast cells [1] = test system: human lymphoblast cells
human lymphoblast cells [2] = format: cell-based

Compound	effect on cytotoxicity of PbTx-2 (LDH activity) (human lymphoblast cells [1])	reduction of PbTx-2 cytotoxicity (human lymphoblast cells [1])	effect on redox state of the proteome (human lymphoblast cells [2])
NCCS [cysteamine]	significantly reduced cytotoxicity	–	–
O=S(=O)(O)CCS [MESNA, sodium mercaptoethyl sulfonate]	significantly reduced cytotoxicity	approximately 50%	restored to control levels
